Experimental data reported in PubChem BioAssay AID272 (DTP/NCI, 2004).
Several values for one entry are separate records, joined by “and”; a condition that tells them apart may be missing. Equal entries are not always repeated. Records with an inconclusive call do not appear.

Test system: Lewis lung carcinoma i.m., BDF1 mice, T/C %
Test: NCI In Vivo Anticancer Drug Screen. Data for tumor model Lewis Lung Carcinoma (intramuscular) in B6D2F1 (BDF1) mice
In short: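 Value is the ratio of a treated-group measurement (T) to the matching vehicle-control measurement (C), using either survival or tumour size in mice bearing transplanted tumours.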

[1] = endpoint: mean tumor weight, dose: 1.0 mg/kg/injection, schedule: Q01DX011 (ip), vehicle: Klucel (hydroxypropylcellulose) (HPC), higher = larger tumour
[2] = endpoint: mean tumor weight, dose: 2.0 mg/kg/injection, schedule: Q01DX011 (ip), vehicle: Klucel (hydroxypropylcellulose) (HPC), higher = larger tumour
[3] = endpoint: mean tumor weight, dose: 4.0 mg/kg/injection, schedule: Q01DX011 (ip), vehicle: Klucel (hydroxypropylcellulose) (HPC), higher = larger tumour
[4] = endpoint: median survival time, dose: 1.0 mg/kg/injection, schedule: Q01DX011 (ip), vehicle: Klucel (hydroxypropylcellulose) (HPC), higher = longer survival
[5] = endpoint: median survival time, dose: 2.0 mg/kg/injection, schedule: Q01DX011 (ip), vehicle: Klucel (hydroxypropylcellulose) (HPC), higher = longer survival
[6] = endpoint: mean tumor weight, dose: 4.0 mg/kg/injection, schedule: Q01DX011 (ip), vehicle: saline, higher = larger tumour
[7] = endpoint: mean tumor weight, dose: 8.0 mg/kg/injection, schedule: Q01DX011 (ip), vehicle: saline, higher = larger tumour

O=C(O)c1[nH]c(=O)[nH]c(=O)c1F
T/C (endpoint: median survival time, dose: 0.19 mg/kg/injection, schedule: Q01DX011 (ip), vehicle: sodium bicarbonate, higher = longer survival): 100 % of control
T/C (endpoint: median survival time, dose: 0.38 mg/kg/injection, schedule: Q01DX011 (ip), vehicle: sodium bicarbonate, higher = longer survival): 111 % of control
T/C (endpoint: median survival time, dose: 0.75 mg/kg/injection, schedule: Q01DX011 (ip), vehicle: sodium bicarbonate, higher = longer survival): 92 % of control
T/C (endpoint: median survival time, dose: 1.5 mg/kg/injection, schedule: Q01DX011 (ip), vehicle: sodium bicarbonate, higher = longer survival): 100 % of control
T/C (endpoint: median survival time, dose: 2.5 mg/kg/injection, schedule: Q01DX011 (ip), vehicle: other, higher = longer survival): 105 % of control
T/C (endpoint: median survival time, dose: 3.12 mg/kg/injection, schedule: Q01DX011 (ip), vehicle: sodium bicarbonate, higher = longer survival): 101 % of control
T/C (endpoint: median tumor weight (est.), dose: 0.19 mg/kg/injection, schedule: Q01DX011 (ip), vehicle: sodium bicarbonate, higher = larger tumour): 96 % of control
T/C (endpoint: median tumor weight (est.), dose: 0.38 mg/kg/injection, schedule: Q01DX011 (ip), vehicle: sodium bicarbonate, higher = larger tumour): 85 % of control
T/C (endpoint: median tumor weight (est.), dose: 0.75 mg/kg/injection, schedule: Q01DX011 (ip), vehicle: sodium bicarbonate, higher = larger tumour): 101 % of control
T/C (endpoint: median tumor weight (est.), dose: 1.5 mg/kg/injection, schedule: Q01DX011 (ip), vehicle: sodium bicarbonate, higher = larger tumour): 108 % of control
T/C (endpoint: median tumor weight (est.), dose: 3.12 mg/kg/injection, schedule: Q01DX011 (ip), vehicle: sodium bicarbonate, higher = larger tumour): 81 % of control

COc1ccc(N=O)c(O)c1
T/C (endpoint: median survival time, dose: 25.0 mg/kg/injection, schedule: Q01DX011 (ip), vehicle: saline, higher = longer survival): 97 % of control
T/C (endpoint: median survival time, dose: 50.0 mg/kg/injection, schedule: Q01DX011 (ip), vehicle: saline, higher = longer survival): 100 % of control
T/C (endpoint: median survival time, dose: 100.0 mg/kg/injection, schedule: Q01DX011 (ip), vehicle: saline, higher = longer survival): 110 % of control

COC1C(O)C(O)OC(CO)C1O (stereo unspecified)
T/C (endpoint: mean tumor weight (est.), dose: 500.0 mg/kg/injection, schedule: Q01DX011 (ip), vehicle: saline, higher = larger tumour): 83 % of control
T/C (endpoint: mean tumor weight (est.), dose: 1000.0 mg/kg/injection, schedule: Q01DX011 (ip), vehicle: saline, higher = larger tumour): 77 % of control
T/C (endpoint: median survival time, dose: 500.0 mg/kg/injection, schedule: Q01DX011 (ip), vehicle: saline, higher = longer survival): 106 % of control
T/C (endpoint: median survival time, dose: 1000.0 mg/kg/injection, schedule: Q01DX011 (ip), vehicle: saline, higher = longer survival): 112 % of control

O=C(O)CCCC1CCCCC1.[Cu+2]
T/C (endpoint: mean tumor weight (est.), dose: 6.25 mg/kg/injection, schedule: Q01DX011 (ip), vehicle: saline with Tween-80, higher = larger tumour): 61 % of control

Clc1ccc(C(c2ccccc2Cl)C(Cl)Cl)cc1 (stereo unspecified)
T/C (endpoint: median survival time, dose: 50.0 mg/kg/injection, schedule: Q01DX011 (ip), vehicle: Klucel (hydroxypropylcellulose) (HPC), higher = longer survival): 88 % of control
T/C (endpoint: median survival time, dose: 100.0 mg/kg/injection, schedule: Q01DX011 (ip), vehicle: Klucel (hydroxypropylcellulose) (HPC), higher = longer survival): 95 % of control

Nc1nc(CCl)nc(Nc2ccccc2)n1
T/C (endpoint: mean tumor weight (est.), dose: 100.0 mg/kg/injection, schedule: Q01DX011 (ip), vehicle: saline with Tween-80, higher = larger tumour): 61 % of control
T/C (endpoint: median survival time, dose: 100.0 mg/kg/injection, schedule: Q01DX011 (ip), vehicle: saline with Tween-80, higher = longer survival): 100 % of control

C[C@]12CC[C@H](OC3OC(CO)C(O)C(O)C3O)C[C@H]1CC[C@@H]1[C@@H]2CC[C@]2(C)[C@@H](C3=CCOC3=O)CC[C@]12O (stereo partly specified)
T/C (endpoint: median survival time, dose: 0.25 mg/kg/injection, schedule: Q01DX011 (ip), vehicle: saline, higher = longer survival): 110 % of control

COc1cc2c3c(c4ccc(OC)c(OC)c4c2cc1OC)CN1CCC[C@@H]1C3
T/C [1]: 88 % of control and 93 % of control
T/C [2]: 69 % of control and 77 % of control
T/C [3]: 85 % of control and 89 % of control
T/C (endpoint: mean tumor weight, dose: 8.0 mg/kg/injection, schedule: Q01DX011 (ip), vehicle: Klucel (hydroxypropylcellulose) (HPC), higher = larger tumour): 64 % of control and 73 % of control
T/C (endpoint: mean tumor weight, dose: 16.0 mg/kg/injection, schedule: Q01DX011 (ip), vehicle: Klucel (hydroxypropylcellulose) (HPC), higher = larger tumour): 41 % of control
T/C [4]: 102 % of control
T/C [5]: 86 % of control
T/C (endpoint: median survival time, dose: 4.0 mg/kg/injection, schedule: Q01DX011 (ip), vehicle: Klucel (hydroxypropylcellulose) (HPC), higher = longer survival): 114 % of control
T/C (endpoint: median survival time, dose: 8.0 mg/kg/injection, schedule: Q01DX011 (ip), vehicle: Klucel (hydroxypropylcellulose) (HPC), higher = longer survival): 100 % of control

c1ccc2c(c1)ccc1c[n+]3ccccc3cc12
T/C (endpoint: mean tumor weight (est.), dose: 0.25 mg/kg/injection, schedule: Q01DX011 (ip), vehicle: saline, higher = larger tumour): 53 % of control
T/C (endpoint: mean tumor weight (est.), dose: 0.5 mg/kg/injection, schedule: Q01DX011 (ip), vehicle: saline, higher = larger tumour): 47 % of control

NC(Cc1ccc(N(CCCl)CCCl)cc1)C(=O)O (stereo unspecified)
T/C [1]: 76 % of control
T/C [2]: 99 % of control
T/C [3]: 52 % of control
T/C [4]: 110 % of control
T/C [5]: 102 % of control

CCc1ccc(/C=C/c2ccc(O)c3ncccc23)[n+](C)c1
T/C [6]: 53 % of control
T/C [7]: 61 % of control
T/C (endpoint: mean tumor weight, dose: 16.0 mg/kg/injection, schedule: Q01DX011 (ip), vehicle: saline, higher = larger tumour): 46 % of control
T/C (endpoint: median survival time, dose: 4.0 mg/kg/injection, schedule: Q01DX011 (ip), vehicle: saline, higher = longer survival): 97 % of control
T/C (endpoint: median survival time, dose: 8.0 mg/kg/injection, schedule: Q01DX011 (ip), vehicle: saline, higher = longer survival): 116 % of control

N=[N+]=CC(=O)OCC(N)C(=O)O (stereo unspecified)
T/C (endpoint: mean tumor weight, dose: 2.0 mg/kg/injection, schedule: Q01DX011 (ip), vehicle: saline, higher = larger tumour): 94 % of control
T/C [6]: 71 % of control
T/C [7]: 27 % of control
T/C (endpoint: median survival time, dose: 2.0 mg/kg/injection, schedule: Q01DX011 (ip), vehicle: saline, higher = longer survival): 96 % of control and 107 % of control
T/C (endpoint: median tumor weight (est.), dose: 2.0 mg/kg/injection, schedule: Q01DX011 (ip), vehicle: saline, higher = larger tumour): 79 % of control
T/C (endpoint: median tumor weight (est.), dose: 8.0 mg/kg/injection, schedule: Q01DX011 (ip), vehicle: saline, higher = larger tumour): 50 % of control

Nc1nncs1
T/C (endpoint: mean tumor weight, dose: 6.25 mg/kg/injection, schedule: Q01DX011 (ip), vehicle: water, higher = larger tumour): 87 % of control
T/C (endpoint: mean tumor weight, dose: 12.5 mg/kg/injection, schedule: Q01DX011 (ip), vehicle: water, higher = larger tumour): 80 % of control
T/C (endpoint: mean tumor weight, dose: 25.0 mg/kg/injection, schedule: Q01DX011 (ip), vehicle: water, higher = larger tumour): 74 % of control
T/C (endpoint: mean tumor weight, dose: 50.0 mg/kg/injection, schedule: Q01DX011 (ip), vehicle: water, higher = larger tumour): 36 % of control
T/C (endpoint: median survival time, dose: 6.25 mg/kg/injection, schedule: Q01DX011 (ip), vehicle: water, higher = longer survival): 121 % of control
T/C (endpoint: median survival time, dose: 25.0 mg/kg/injection, schedule: Q01DX011 (ip), vehicle: water, higher = longer survival): 123 % of control

O=C[C@@H](CO)O[C@H](C=O)n1cnc2c(=O)[nH]cnc21
T/C (endpoint: mean tumor weight, dose: 37.5 mg/kg/injection, schedule: Q01DX011 (ip), vehicle: saline, higher = larger tumour): 53 % of control
T/C (endpoint: mean tumor weight, dose: 39.0 mg/kg/injection, schedule: Q01DX011 (ip), vehicle: saline, higher = larger tumour): 49 % of control
T/C (endpoint: mean tumor weight, dose: 65.0 mg/kg/injection, schedule: Q01DX011 (ip), vehicle: saline, higher = larger tumour): 74 % of control
T/C (endpoint: mean tumor weight, dose: 75.0 mg/kg/injection, schedule: Q01DX011 (ip), vehicle: saline, higher = larger tumour): 71 % of control
T/C (endpoint: mean tumor weight, dose: 108.0 mg/kg/injection, schedule: Q01DX011 (ip), vehicle: saline, higher = larger tumour): 60 % of control
T/C (endpoint: mean tumor weight, dose: 150.0 mg/kg/injection, schedule: Q01DX011 (ip), vehicle: saline, higher = larger tumour): 46 % of control
T/C (endpoint: median survival time, dose: 39.0 mg/kg/injection, schedule: Q01DX011 (ip), vehicle: saline, higher = longer survival): 115 % of control
T/C (endpoint: median survival time, dose: 65.0 mg/kg/injection, schedule: Q01DX011 (ip), vehicle: saline, higher = longer survival): 115 % of control
T/C (endpoint: median survival time, dose: 75.0 mg/kg/injection, schedule: Q01DX011 (ip), vehicle: saline, higher = longer survival): 113 % of control
T/C (endpoint: median survival time, dose: 108.0 mg/kg/injection, schedule: Q01DX011 (ip), vehicle: saline, higher = longer survival): 103 % of control

COc1cc([C@@H]2c3cc4c(cc3[C@H](O)[C@H]3COC(=O)[C@H]23)OCO4)cc(OC)c1OC
T/C (endpoint: mean tumor weight, dose: 0.25 mg/kg/injection, schedule: Q01DX011 (ip), vehicle: Klucel (hydroxypropylcellulose) (HPC), higher = larger tumour): 100 % of control
T/C (endpoint: mean tumor weight, dose: 0.5 mg/kg/injection, schedule: Q01DX011 (ip), vehicle: Klucel (hydroxypropylcellulose) (HPC), higher = larger tumour): 77 % of control
T/C [1]: 105 % of control
T/C (endpoint: median survival time, dose: 0.13 mg/kg/injection, schedule: Q01DX011 (ip), vehicle: Klucel (hydroxypropylcellulose) (HPC), higher = longer survival): 87 % of control
T/C (endpoint: median survival time, dose: 0.25 mg/kg/injection, schedule: Q01DX011 (ip), vehicle: Klucel (hydroxypropylcellulose) (HPC), higher = longer survival): 107 % of control
T/C (endpoint: median survival time, dose: 0.5 mg/kg/injection, schedule: Q01DX011 (ip), vehicle: Klucel (hydroxypropylcellulose) (HPC), higher = longer survival): 114 % of control

Cc1nc(N)nc(N)c1-c1ccc(Cl)c(Cl)c1
T/C (endpoint: mean tumor weight, dose: 6.0 mg/kg/injection, schedule: Q04DX004 (ip), vehicle: saline, higher = larger tumour): 180 % of control
T/C (endpoint: median survival time, dose: 4.0 mg/kg/injection, schedule: Q04DX004 (ip), vehicle: saline, higher = longer survival): 100 % of control
T/C (endpoint: median survival time, dose: 8.0 mg/kg/injection, schedule: Q04DX004 (ip), vehicle: saline, higher = longer survival): 116 % of control
